# Source: patent US20250320184A1 (SIRONAX LTD., priority 2022, published 2025)
# Target: T1, SARM1 (50-724) (Homo sapiens, UniProt Q6SZW1)
# T1 sequence (Q6SZW1 50-724): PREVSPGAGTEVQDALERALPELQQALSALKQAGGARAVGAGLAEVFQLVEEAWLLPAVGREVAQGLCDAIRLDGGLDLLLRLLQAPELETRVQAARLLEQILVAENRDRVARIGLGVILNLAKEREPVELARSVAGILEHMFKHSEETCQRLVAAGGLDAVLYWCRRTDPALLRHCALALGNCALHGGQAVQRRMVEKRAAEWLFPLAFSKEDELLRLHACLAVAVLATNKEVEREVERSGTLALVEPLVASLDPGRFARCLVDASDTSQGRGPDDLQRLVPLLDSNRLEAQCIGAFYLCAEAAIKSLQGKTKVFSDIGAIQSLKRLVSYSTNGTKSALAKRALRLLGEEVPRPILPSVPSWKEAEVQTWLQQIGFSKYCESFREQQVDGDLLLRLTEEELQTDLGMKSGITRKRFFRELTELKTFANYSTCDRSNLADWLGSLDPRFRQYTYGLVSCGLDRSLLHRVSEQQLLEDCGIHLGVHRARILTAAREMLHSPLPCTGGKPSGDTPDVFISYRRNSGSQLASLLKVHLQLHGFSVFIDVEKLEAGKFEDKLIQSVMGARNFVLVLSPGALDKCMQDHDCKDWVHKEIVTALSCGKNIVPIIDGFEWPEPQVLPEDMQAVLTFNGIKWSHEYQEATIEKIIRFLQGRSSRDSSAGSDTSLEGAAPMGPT
# Assay: biochemical
# Procedure: An enzymatic assay was performed in a 384-well plate using Dulbecco's phosphate-buffered saline (PBS) as the reaction buffer. […] The reaction was initiated by adding a mixture of 200 μM nicotinamide mononucleotide (NMN) as activator and 100 μM NAD^+ as substrate. After 1 h of incubation at room temperature, the reaction was terminated with 10 times volume of 70% acetonitrile, then centrifuged at 3800 rpm for 10 min.
row,SMILES,IC50
1,Cc1c(F)cccc1S(=O)(=O)Nc1ccc2c(c1)CN(C(=O)OC(C)(C)C)CC2 [Compound 4],> 1000 nM
2,"Cc1c(F)cccc1S(=O)(=O)Nc1ccc2c(c1)C(=O)OCC2 [Compound 5, 3-fluoro-2-methyl-N-(1-oxoisochroman-7-yl)benzenesulfonamide]",> 1000 nM
3,"Cc1c(F)cccc1S(=O)(=O)Nc1ccc2c(c1)CC(=O)NC2 [Compound 7, 3-fluoro-2-methyl-N-(3-oxo-1,2,3,4-tetrahydroisoquinolin-6-yl)benzenesulfonamide]",> 1000 nM
4,"Cc1c(F)cccc1S(=O)(=O)Nc1ccc2c(c1)CCC(=O)N2 [Compound 8, 3-fluoro-2-methyl-N-(2-oxo-1,2,3,4-tetrahydroquinolin-6-yl)benzenesulfonamide]",> 1000 nM
5,"Cc1ccccc1S(=O)(=O)Nc1ccc2c(c1)C(=O)NCC2 [Compound 9, 2-methyl-N-(1-oxo-1,2,3,4-tetrahydroisoquinolin-7-yl)benzenesulfonamide]",> 1000 nM
6,"Cc1ccc(F)cc1S(=O)(=O)Nc1ccc2c(c1)C(=O)NCC2 [Compound 10, 5-fluoro-2-methyl-N-(1-oxo-1,2,3,4-tetrahydroisoquinolin-7-yl)benzenesulfonamide]",> 1000 nM
7,"O=C1NCCc2ccc(NS(=O)(=O)c3cc(F)cc(Br)c3)cc21 [Compound 12, 3-bromo-5-fluoro-N-(1-oxo-1,2,3,4-tetrahydroisoquinolin-7-yl)benzenesulfonamide]",> 1000 nM
8,"Cc1c(F)cccc1S(=O)(=O)Nc1ccc2c(c1)CCCC2 [Compound 14, 3-fluoro-2-methyl-N-(5,6,7,8-tetrahydronaphthalen-2-yl)benzenesulfonamide]",500 to 1000 nM
9,"Cc1ccnc2cc(NS(=O)(=O)c3cccc(Cl)c3Cl)ccc12 [Compound 16, 2,3-dichloro-N-(4-methylquinolin-7-yl)benzenesulfonamide]",100 to 500 nM
10,"Cc1cccc(C)c1S(=O)(=O)Nc1ccc2c(c1)C(=O)NCC2 [Compound 18, 2,6-dimethyl-N-(1-oxo-1,2,3,4-tetrahydroisoquinolin-7-yl)benzenesulfonamide]",500 to 1000 nM
11,"CC1Cc2ccc(NS(=O)(=O)c3cccc(Cl)c3Cl)cc2C(=O)N1 (stereo not drawn) [Compound 19, 2,3-dichloro-N-(3-methyl-1-oxo-1,2,3,4-tetrahydroisoquinolin-7-yl)benzenesulfonamide]",100 to 500 nM
12,"Cc1c(F)cccc1S(=O)(=O)Nc1ccc2c(c1)C(=O)N(C)CC2 [Compound 21, 3-fluoro-2-methyl-N-(2-methyl-1-oxo-1,2,3,4-tetrahydroisoquinolin-7-yl)benzenesulfonamide]",100 to 500 nM
13,"O=c1[nH]cnc2ccc(NS(=O)(=O)c3cccc(Cl)c3Cl)cc12 [Compound 23, 2,3-dichloro-N-(4-oxo-3,4-dihydroquinazolin-6-yl)benzenesulfonamide]",100 to 500 nM
14,"Cc1c(F)cccc1S(=O)(=O)Nc1ccc2cnn(C(=O)OC(C)(C)C)c2c1 [Compound 24, tert-butyl 6-((3-fluoro-2-methylphenyl)sulfonamido)-1H-indazole-1-carboxylate]",> 1000 nM
15,"Cc1c(F)cccc1S(=O)(=O)Nc1ccc2cn[nH]c2c1 [Compound 25, 3-fluoro-N-(1H-indazol-6-yl)-2-methylbenzenesulfonamide]",500 to 1000 nM
16,"Cc1c(F)cccc1S(=O)(=O)Nc1cccc(N2CCCC2=O)c1 [Compound 27, 3-fluoro-2-methyl-N-(3-(2-oxopyrrolidin-1-yl)phenyl)benzenesulfonamide]",> 1000 nM
17,"Cc1c(F)cccc1S(=O)(=O)Nc1cccc(N2CCN(C)C2=O)c1 [Compound 28, 3-fluoro-2-methyl-N-(3-(3-methyl-2-oxoimidazolidin-1-yl)phenyl)benzenesulfonamide]",> 1000 nM
18,"Cc1nc2cc(NS(=O)(=O)c3cccc(Cl)c3Cl)ccc2s1 [Compound 29, 2,3-dichloro-N-(2-methylbenzo[d]thiazol-5-yl)benzenesulfonamide]",100 to 500 nM
19,"Cc1cc(S(=O)(=O)Nc2ccc3c(c2)C(=O)NCC3)c(F)cc1F [Compound 30, 2,4-difluoro-5-methyl-N-(1-oxo-1,2,3,4-tetrahydroisoquinolin-7-yl)benzenesulfonamide]",100 to 500 nM
20,"NC(=O)Cc1ccc(NS(=O)(=O)c2cccc(Cl)c2Cl)cc1 [Compound 31, 2-(4-((2,3-dichlorophenyl)sulfonamido)phenyl)acetamide]",100 to 500 nM
21,"Cc1c(F)cccc1S(=O)(=O)Nc1ccc2scnc2c1 [Compound 32, N-(benzo[d]thiazol-5-yl)-3-fluoro-2-methylbenzenesulfonamide]",100 to 500 nM
22,"O=S(=O)(Nc1ccc2sc(Cl)nc2c1)c1cccc(Cl)c1Cl [Compound 33, 2,3-dichloro-N-(2-chlorobenzo[d]thiazol-5-yl)benzenesulfonamide]",100 to 500 nM
23,"O=C1NCCc2ccc(NS(=O)(=O)c3cc(F)c(F)c(F)c3)cc21 [Compound 34, 3,4,5-trifluoro-N-(1-oxo-1,2,3,4-tetrahydroisoquinolin-7-yl)benzenesulfonamide]",> 1000 nM
24,"O=C1NCCc2ccc(NS(=O)(=O)c3cc(F)c(F)cc3F)cc21 [Compound 35, 2,4,5-trifluoro-N-(1-oxo-1,2,3,4-tetrahydroisoquinolin-7-yl)benzenesulfonamide]",> 1000 nM
25,"O=C1NCCc2ccc(NS(=O)(=O)c3ccc(F)c(F)c3F)cc21 [Compound 36, 2,3,4-trifluoro-N-(1-oxo-1,2,3,4-tetrahydroisoquinolin-7-yl)benzenesulfonamide]",100 to 500 nM
26,"O=C1NCCc2ccc(NS(=O)(=O)c3c(F)cc(F)cc3F)cc21 [Compound 38, 2,4,6-trifluoro-N-(1-oxo-3,4-dihydro-2H-isoquinolin-7-yl)benzenesulfonamide]",> 1000 nM

# More lines, now with the values ahead:
row,IC50,SMILES
1,< 100 nM,"CC(Nc1cc(F)c2ncn(-c3ccn[nH]3)c(=O)c2c1)c1nc(Cl)c(Cl)s1 (single isomer, unassigned) [Example 356]"
2,< 100 nM,"CC(Nc1cc(F)c2ncn(-c3cn[nH]c3)c(=O)c2c1)c1nc(Cl)c(Cl)s1 (single isomer, unassigned) [Example 374]"
3,< 100 nM,"Cc1c2ccc(NC(C)c3nc(Cl)c(Cl)s3)cc2nn1[C@@H]1CC[C@@H](O)C1 (stereo in doubt) [Compound 335, 3-(6-((1-(4,5-dichlorothiazol-2-yl)ethyl)amino)-3-methyl-2H-indazol-2-yl)cyclopentan-1-ol]"
4,< 100 nM,"Cc1c2ccc(NC(C)c3nc(Cl)c(Cl)s3)cc2nn1[C@@H]1CC[C@H](O)C1 (stereo in doubt) [Compound 336, 3-(6-((1-(4,5-dichlorothiazol-2-yl)ethyl)amino)-3-methyl-2H-indazol-2-yl)cyclopentan-1-ol]"
5,< 100 nM,"Cc1ccc(Cl)c(S(=O)(=O)Nc2ccc3c(c2)C(=O)NCC3)c1Cl [Compound 2, 2,6-dichloro-3-methyl-N-(1-oxo-3,4-dihydro-2H-isoquinolin-7-yl)benzenesulfonamide]"
6,100 to 500 nM,"Cc1c(F)cccc1S(=O)(=O)Nc1ccc2c(c1)NC(=O)CC2 [Compound 3, 3-fluoro-2-methyl-N-(2-oxo-1,2,3,4-tetrahydroquinolin-7-yl)benzenesulfonamide]"
7,100 to 500 nM,"Cc1c(F)cccc1S(=O)(=O)Nc1ccc2c(c1)C(=O)NCCC2 [Compound 6, 3-fluoro-2-methyl-N-(1-oxo-2,3,4,5-tetrahydro-1H-benzo[c]azepin-8-yl)benzenesulfonamide]"
8,< 100 nM,"O=S(=O)(Nc1ccc2cc[nH]c2c1)c1cccc(Cl)c1Cl [Compound 11, 2,3-dichloro-N-(1H-indol-6-yl)benzenesulfonamide]"
9,< 100 nM,"Cc1c(Br)cccc1S(=O)(=O)Nc1ccc2c(c1)C(=O)NCC2 [Compound 13, 3-bromo-2-methyl-N-(1-oxo-1,2,3,4-tetrahydroisoquinolin-7-yl)benzenesulfonamide]"
10,< 100 nM,"Cc1c(F)cccc1S(=O)(=O)Nc1ccc2cc[nH]c(=O)c2c1 [Compound 15, 3-fluoro-2-methyl-N-(1-oxo-1,2-dihydroisoquinolin-7-yl)benzenesulfonamide]"
11,< 100 nM,"O=C1NCCc2ccc(NS(=O)(=O)c3cccc(Cl)c3Cl)cc21 [Compound 20, 2,3-dichloro-N-(1-oxo-1,2,3,4-tetrahydroisoquinolin-7-yl)benzenesulfonamide]"
12,< 100 nM,"O=c1[nH]ccc2ccc(NS(=O)(=O)c3cccc(Cl)c3Cl)cc12 [Compound 22, 2,3-dichloro-N-(1-oxo-1,2-dihydroisoquinolin-7-yl)benzenesulfonamide]"
13,< 100 nM,"Cc1cnc2cc(NS(=O)(=O)c3cccc(Cl)c3Cl)ccc2c1 [Compound 26, 2,3-dichloro-N-(3-methylquinolin-7-yl)benzenesulfonamide]"
14,< 100 nM,"Cc1ccc(Cl)c(S(=O)(=O)Nc2ccc3cc[nH]c(=O)c3c2)c1Cl [Compound 37, 2,6-dichloro-3-methyl-N-(1-oxo-2H-isoquinolin-7-yl)benzenesulfonamide]"
15,< 100 nM,"Cc1c(Cl)cccc1S(=O)(=O)Nc1ccc2c(c1)C(=O)NCCC2 [Compound 39, 3-chloro-2-methyl-N-(1-oxo-2,3,4,5-tetrahydro-1H-benzo[c]azepin-8-yl)benzenesulfonamide]"
16,< 100 nM,"Cc1c(Br)cccc1S(=O)(=O)Nc1ccc2c(c1)C(=O)NCCC2 [Compound 40, 3-bromo-2-methyl-N-(1-oxo-2,3,4,5-tetrahydro-1H-benzo[c]azepin-8-yl)benzenesulfonamide]"
